This assay deals with T1, Recombinant full length human OGA enzyme (Homo sapiens, UniProt O60502).
T1 construct: Recombinant full length human OGA enzyme was purchased from Origene; purchased Origene
T1 sequence (O60502 1-916): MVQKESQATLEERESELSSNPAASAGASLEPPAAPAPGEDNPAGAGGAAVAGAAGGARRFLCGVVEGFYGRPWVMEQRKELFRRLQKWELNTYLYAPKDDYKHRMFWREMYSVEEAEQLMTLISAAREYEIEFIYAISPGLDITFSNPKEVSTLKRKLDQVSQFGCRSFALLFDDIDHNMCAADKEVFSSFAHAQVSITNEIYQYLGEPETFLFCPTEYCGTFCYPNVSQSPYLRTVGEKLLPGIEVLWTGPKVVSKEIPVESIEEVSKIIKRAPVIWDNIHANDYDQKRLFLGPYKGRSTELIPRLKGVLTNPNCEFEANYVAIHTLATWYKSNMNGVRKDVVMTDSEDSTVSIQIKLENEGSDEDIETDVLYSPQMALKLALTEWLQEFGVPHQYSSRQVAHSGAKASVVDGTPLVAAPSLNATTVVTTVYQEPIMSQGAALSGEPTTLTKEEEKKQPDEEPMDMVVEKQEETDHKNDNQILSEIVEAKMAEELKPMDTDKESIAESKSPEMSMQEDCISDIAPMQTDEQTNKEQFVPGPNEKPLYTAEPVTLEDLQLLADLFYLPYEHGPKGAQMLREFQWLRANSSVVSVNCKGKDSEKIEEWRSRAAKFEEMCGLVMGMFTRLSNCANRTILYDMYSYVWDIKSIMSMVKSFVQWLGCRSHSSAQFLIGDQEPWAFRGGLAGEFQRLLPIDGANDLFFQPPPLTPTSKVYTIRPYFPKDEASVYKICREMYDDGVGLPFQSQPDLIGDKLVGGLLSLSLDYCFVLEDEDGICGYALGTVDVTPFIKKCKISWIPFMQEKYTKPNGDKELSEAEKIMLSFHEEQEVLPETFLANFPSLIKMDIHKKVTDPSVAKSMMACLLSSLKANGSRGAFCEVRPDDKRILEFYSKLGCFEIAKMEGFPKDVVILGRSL
The assay can be described thus: OGA Enzyme Inhibition Biochemical Assay. The conditions noted are these: 1 nM OGA, 100 μM 4-MUGlcNAc (Km), pH 6.4, 90 minutes at room temperature, 10-point dose-response from 20 μM. The gist of the method:
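Full-length human OGA at 1 nM with 100 μM 4-MUGlcNAc (Km) in McIlvaine buffer pH 6.4 plus 0.01% BSA, 90 min at room temperature, then glycine pH 10 quench. Fluorescence read at Ex 355/Em 460 nm. 10-point, 4-fold dose-response from 20 μM, 4-parameter variable-slope fit.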
With `CC(=O)Nc1ncc(CN2CCC(F)(Cc3ncc(F)cn3)C2)s1` (centres unmarked) [Example 2-16, N-(5-((3-fluoro-3-((5-fluoropyrimidin-2-yl)methyl)pyrrolidin-1-yl)methyl)thiazol-2-yl)acetamide], the IC50 was found to be 880 nM.

On to `CC(=O)Nc1ncc(CN2CC(Cc3ncc(F)cn3)CC2C)s1` (centres unmarked) [Example 2-17, N-(5-((4-((5-fluoropyrimidin-2-yl)methyl)-2-methylpyrrolidin-1-yl)methyl)thiazol-2-yl)acetamide], for which the IC50 is 2 nM.

On to `CC(=O)Nc1ncc(CN2CCC[C@@H](Cc3ncc(F)cn3)C2)s1` [Example 2-33, N-[5-[[(3S)-3-[(5-fluoropyrimidin-2-yl)methyl]-1-piperidyl]methyl]thiazol-2-yl]acetamide], for which the IC50 worked out at 122 nM.

Take `CC(=O)Nc1ncc(CN2CCCC(C)(Cc3ncc(F)cn3)C2)s1` (centres unmarked) [Example 2-34, N-(5-((3-((5-fluoropyrimidin-2-yl)methyl)-3-methylpiperidin-1-yl)methyl)thiazol-2-yl)acetamide]: the IC50 was 450 nM.

For `CC(=O)Nc1ncc(CN2CCC(C)(Cc3ncc(F)cn3)C2)s1` (centres unmarked) [Example 2-35, N-(5-((3-((5-fluoropyrimidin-2-yl)methyl)-3-methylpyrrolidin-1-yl)methyl)thiazol-2-yl)acetamide], the IC50 came to 1600 nM.

Take `CC(=O)Nc1ncc(CN2CCC(C(C)c3ncc(F)cn3)C2)s1` (centres unmarked) [Example 2-36, N-(5-((3-(1-(5-fluoropyrimidin-2-yl)ethyl)pyrrolidin-1-yl)methyl)thiazol-2-yl)acetamide]: the IC50 was 1 nM.

Regarding `CC(=O)Nc1ncc(CN2CCCC(Cc3ncc(F)cn3)C2C)s1` (centres unmarked) [Example 2-41, N-(5-((3-((5-fluoropyrimidin-2-yl)methyl)-2-methylpiperidin-1-yl)methyl)thiazol-2-yl)acetamide], the IC50 amounted to 510 nM.

On to `CC(=O)Nc1ncc(CN2CCC(Cc3ncc(F)cn3)C2C)s1` (centres unmarked) [Example 2-42, N-(5-((3-((5-fluoropyrimidin-2-yl)methyl)-2-methylpyrrolidin-1-yl)methyl)thiazol-2-yl)acetamide], for which the IC50 is 250 nM.

As to `CC(=O)Nc1ncc(CN2CC(Cc3ncc(F)cn3)CC[C@H]2C(F)(F)F)s1` (some centres unmarked) [Example 2-49], the IC50 is greater than 20000 nM.

As for `CC(=O)Nc1ncc(CN2CC(Cc3ncc(F)cn3)CC[C@@H]2C(F)(F)F)s1` (some centres unmarked) [Example 2-50], the IC50 came out at 270 nM.

Regarding `CC(=O)Nc1nc(F)c(CN2CCC(C(C)c3ncc(F)cn3)C2)s1` (centres unmarked) [Example 2-51, N-(4-fluoro-5-((3-(1-(5-fluoropyrimidin-2-yl)ethyl)pyrrolidin-1-yl)methyl)thiazol-2-yl)acetamide], the IC50 was 1 nM.

Consider `COc1cc(C(C)C2CCN(Cc3sc(NC(C)=O)nc3F)C2)ncn1` (centres unmarked) [Example 2-52, N-(4-fluoro-5-((3-(1-(6-methoxypyrimidin-4-yl)ethyl)pyrrolidin-1-yl)methyl)thiazol-2-yl)acetamide], for which the IC50 was determined as 1.7 nM.

In the case of `CC(=O)Nc1nc(F)c(CN2C[C@@H](Cc3ncc(F)cn3)CC[C@@H]2C)s1` [Example 2-53, N-(4-fluoro-5-(((2S,5R)-5-((5-fluoropyrimidin-2-yl)methyl)-2-methylpiperidin-1-yl)methyl)thiazol-2-yl)acetamide], the IC50 is 9.2 nM.

Consider `CC(=O)Nc1ncc(CN2CCC[C@H](Cc3ncc(F)cn3)C2)s1` [Example 3-1, N-[5-[[(3R)-3-[(5-fluoropyrimidin-2-yl)methyl]-1-piperidyl]methyl]thiazol-2-yl]acetamide], for which the IC50 worked out at 1 nM.

Regarding `CC(=O)Nc1ncc(CN2CC(F)CC(Cc3ncc(F)cn3)C2)s1` (centres unmarked) [Example 3-2, N-(5-((3-fluoro-5-((5-fluoropyrimidin-2-yl)methyl)piperidin-1-yl)methyl)thiazol-2-yl)acetamide], the IC50 turned out to be 11 nM.

Take `CC(=O)Nc1ncc(CN2CC(Cc3ncc(F)cn3)C(F)(F)C2)s1` (centres unmarked) [Example 3-3, N-(5-((3,3-difluoro-4-((5-fluoropyrimidin-2-yl)methyl)pyrrolidin-1-yl)methyl)thiazol-2-yl)acetamide]: the IC50 was found to be 920 nM.

As to `CC(=O)Nc1ncc(CN2CCC[C@H](Cc3ccnc(C)n3)C2)s1` [Example 3-4, (R)-N-(5-((3-((2-methylpyrimidin-4-yl)methyl)piperidin-1-yl)methyl)thiazol-2-yl)acetamide], the IC50 was less than 1 nM.

For the compound `CC(=O)Nc1ncc(CN2CCC[C@H](Cc3ccc(C(F)F)cn3)C2)s1` [Example 3-5, (R)-N-(5-((3-((5-(difluoromethyl)pyridin-2-yl)methyl)piperidin-1-yl)methyl)thiazol-2-yl)acetamide], the IC50 was 2 nM.

On to `CC(=O)Nc1ncc(CN2CCC[C@H](Cc3ncc(C(F)F)cn3)C2)s1` [Example 3-6, (R)-N-(5-((3-((5-(difluoromethyl)pyrimidin-2-yl)methyl)piperidin-1-yl)methyl)thiazol-2-yl)acetamide], for which the IC50 worked out at 2 nM.

`CC(=O)Nc1ncc(CN2CCC[C@H](Cc3ncccn3)C2)s1` [Example 3-7, (R)-N-(5-((3-(pyrimidin-2-ylmethyl)piperidin-1-yl)methyl)thiazol-2-yl)acetamide]: the half-maximal inhibitory concentration (IC50) is 2 nM.

On to `COc1nc(C[C@H]2CCCN(Cc3cnc(NC(C)=O)s3)C2)nc(C)c1F` [Example 3-8, (R)-N-(5-((3-((5-fluoro-4-methoxy-6-methylpyrimidin-2-yl)methyl)piperidin-1-yl)methyl)thiazol-2-yl)acetamide], for which the IC50 stood at 1 nM.

In the case of `COc1nc(C[C@H]2CCN(Cc3cnc(NC(C)=O)s3)C2)nc(C)c1F` [Example 3-9, (R)-N-(5-((3-((5-fluoro-4-methoxy-6-methylpyrimidin-2-yl)methyl)pyrrolidin-1-yl)methyl)thiazol-2-yl)acetamide], the 50% inhibitory concentration (IC50) was less than 1 nM.

Turning to `CC(=O)Nc1ncc(CN2CC[C@H](Cc3nccc(C)n3)C2)s1` [Example 3-10, (R)-N-(5-((3-((4-methylpyrimidin-2-yl)methyl)pyrrolidin-1-yl)methyl)thiazol-2-yl)acetamide], the IC50 worked out at 14 nM.

For the compound `CC(=O)Nc1ncc(CN2CC[C@H](Cc3ncc(F)c(C)n3)C2)s1` [Example 3-11, (R)-N-(5-((3-((5-fluoro-4-methylpyrimidin-2-yl)methyl)pyrrolidin-1-yl)methyl)thiazol-2-yl)acetamide], the 50% inhibitory concentration (IC50) turned out to be 11 nM.

On to `COc1ccnc(C[C@H]2CCN(Cc3cnc(NC(C)=O)s3)C2)n1` [Example 3-12, (R)-N-(5-((3-((4-methoxypyrimidin-2-yl)methyl)pyrrolidin-1-yl)methyl)thiazol-2-yl)acetamide], for which the IC50 came out at 9 nM.

On to `CC(=O)Nc1ncc(CN2CC[C@H](Cc3ncc(C)cn3)C2)s1` [Example 3-13, (R)-N-(5-((3-((5-methylpyrimidin-2-yl)methyl)pyrrolidin-1-yl)methyl)thiazol-2-yl)acetamide], for which the IC50 came out at 14 nM.

Take `CC(=O)N(C)c1ncc(CN2CCC[C@H](Cc3ncc(F)cn3)C2)s1` [Example 3-16, N-[5-[[(3R)-3-[(5-fluoropyrimidin-2-yl)methyl]-1-piperidyl]methyl]thiazol-2-yl]-N-methyl-acetamide]: the IC50 was found to be 19 nM.

For `CCC(=O)Nc1nc(F)c(CN2CCC[C@H](Cc3ncc(F)cn3)C2)s1` [Example 3-17, (R)-N-(4-fluoro-5-((3-((5-fluoropyrimidin-2-yl)methyl)piperidin-1-yl)methyl)thiazol-2-yl)propionamide], the IC50 was 1.2 nM.

Regarding `CC(=O)Nc1nc(F)c(CN2CCC[C@H](Cc3ccnc(C)c3)C2)s1` [Example 3-18, (R)-N-(4-fluoro-5-((3-((2-methylpyridin-4-yl)methyl)piperidin-1-yl)methyl)thiazol-2-yl)acetamide], the IC50 was less than 1 nM.

As to `COc1cc(C[C@H]2CCCN(Cc3sc(NC(C)=O)nc3F)C2)ccn1` [Example 3-19, (R)-N-(4-fluoro-5-((3-((2-methoxypyridin-4-yl)methyl)piperidin-1-yl)methyl)thiazol-2-yl)acetamide], the IC50 was less than 1 nM.

In the case of `CC(=O)Nc1nc(F)c(CN2CCC[C@H](Cc3ccc(C)nc3)C2)s1` [Example 3-20, (R)-N-(4-fluoro-5-((3-((6-methylpyridin-3-yl)methyl)piperidin-1-yl)methyl)thiazol-2-yl)acetamide], the IC50 was less than 1 nM.

In the case of `CC(=O)Nc1nc(F)c(CN2CCC[C@H](Cc3cc(C)nc(C)n3)C2)s1` [Example 3-21, (R)-N-(5-((3-((2,6-dimethylpyrimidin-4-yl)methyl)piperidin-1-yl)methyl)-4-fluorothiazol-2-yl)acetamide], the IC50 is less than 1 nM.
